Experimental data from patent US9617256B2 (priority 2007, dated 2017).
In brackets after ≈: the same amount, converted by molar mass. Read-outs that look alike come from different tables or passages of the source.

What was measured:
[1] = system: APAE006 (strain of P. aeruginosa in which all efflux pumps are inactivated); experiment: microbe, parasite or virus in culture; format: cell-based; conditions: Pseudomonas aeruginosa
Procedure: (§1) Bacterial isolates were cultivated from −70° C. frozen stocks by overnight passages at 35° C. in ambient air on Mueller-Hinton agar (Beckton Dickinson, Franklin Lakes, N.J.). Clinical isolates tested were obtained from various geographically diverse hospitals in the US and abroad (Focus Diagnostics, Herndon, Va. and JMI, North Liberty, Iowa). Quality control strains were from the American Type Culture Collection (ATCC; Rockville, Md.). Additional primary panel strains were generated using standard molecular biology techniques.
(§2) Minimum Inhibitory Concentrations (MICs) were determined by the broth microdilution method in accordance with the Clinical and Laboratory Standards Institute (CLSI) guidelines. In brief, organism suspensions were adjusted to a 0.5 McFarland standard to yield a final inoculum between 3×10^5 and 7×10^5 colony-forming units (CFU)/mL. Drug dilutions and inocula were made in sterile, cation adjusted Mueller-Hinton Broth (Beckton Dickinson). An inoculum volume of 100 μL was added to wells containing 100 μL of broth with 2-fold serial dilutions of drug. All inoculated microdilution trays were incubated in ambient air at 35° C. for 18-24 hours. […] Performance of the assay was monitored by the use of laboratory quality-control strains and levofloxacin, a compound with a defined MIC spectrum, in accordance with CLSI guidelines.
(§3) *AECO001 is ATCC25922, AECO063 is ATCC25922 bearing an acrAB mutation, APAE001 is ATCC27853, APAE006 is a strain of P. aeruginosa in which all efflux pumps are inactivated, APAE006+PMBN indicates MICs with the indicated strain in the presence of 8 micrograms per milliliter of polymyxin B nonapeptide, AABA1060 is a clinical isolate of Acinetobacter baumannii, ASAU001 is a laboratory strain of S. aureus (ATCC29213).

[2] = system: APAE001 (ATCC27853); experiment: MIC broth microdilution, APAE001; format: cell-based, P. aeruginosa; conditions: Pseudomonas aeruginosa
Procedure: as §1, §2, §3

[3] = system: AECO001 (ATCC25922); experiment: MIC broth microdilution, AECO001; format: cell-based, E. coli; conditions: Escherichia coli
Procedure: as §1, §2, §3

[4] = system: ASAU001 (laboratory strain of S. aureus, ATCC29213); experiment: MIC broth microdilution, ASAU001; format: cell-based; conditions: Staphylococcus aureus, ATCC29213, read-out: MIC ASAU001
Procedure: as §1, §2, §3

[5] = system: AABA1060 (clinical isolate of Acinetobacter baumannii); experiment: MIC broth microdilution, AABA1060; format: cell-based; conditions: Acinetobacter baumannii, read-out: MIC AABA1060
Procedure: as §1, §2, §3

[6] = system: AECO063 (ATCC25922 bearing an acrAB mutation); experiment: microbe, parasite or virus in culture; format: cell-based, E. coli; conditions: Escherichia coli, ATCC25922, read-out: MIC AECO063
Procedure: as §1, §2, §3

[7] = read-out: MIC APAE006, P. aeruginosa, all efflux pumps inactivated
[8] = ATCC27853, read-out: MIC APAE001, APAE001 is ATCC27853
[9] = ATCC25922, read-out: MIC AECO001
[10] = read-out: MIC APAE006, APAE006, all efflux pumps inactivated
[11] = ATCC27853, read-out: MIC APAE001, APAE001 (ATCC27853)
[12] = ATCC25922, read-out: MIC AECO001 HSA AGP

| SMILES | MIC [1, 7] | MIC [2, 8] | MIC [3, 9] | MIC [4] | MIC [1, 10] | MIC [2, 11] | MIC [3, 12] | MIC [5] | MIC [6] |
| --- | --- | --- | --- | --- | --- | --- | --- | --- | --- |
| O=C(NO)[C@@H]1CCCN1S(=O)(=O)c1ccc(C#Cc2ccc(CN3CCOCC3)cc2)cc1 [Example 62-10] | < 2 mg/L | > 64 mg/L | 2 to 16 mg/L (≈ 4.26 to 34.1 µM) | > 64 mg/L | – | – | – | – | – |
| C[C@H](NCC(=O)N[C@H](C)[C@H](NC(=O)c1ccc(C#Cc2ccccc2)cc1)C(=O)NO)c1ccccc1 [Example 132-5] | – | – | 16 to 64 mg/L (≈ 32.1 to 128 µM) | 16 to 64 mg/L (≈ 32.1 to 128 µM) | < 2 mg/L | 16 to 64 mg/L (≈ 32.1 to 128 µM) | 16 to 64 mg/L (≈ 32.1 to 128 µM) | 16 to 64 mg/L (≈ 32.1 to 128 µM) | – |
| O=C(NO)[C@H](Cc1ccccc1)NS(=O)(=O)c1ccc(C#Cc2ccc(CN3CCOCC3)cc2)cc1 [Example 62-6] | 2 to 16 mg/L (≈ 3.85 to 30.8 µM) | > 64 mg/L | 16 to 64 mg/L (≈ 30.8 to 123 µM) | > 64 mg/L | – | – | – | – | – |
| O=C(NO)[C@@H](Cc1ccccc1)NS(=O)(=O)c1ccc(C#Cc2ccc(CN3CCOCC3)cc2)cc1 [Example 62-4, (R)—N-Hydroxy-2-[4-(4-morpholin-4-ylmethyl-phenylethynyl)-benzenesulfonylamino]-3-phenyl-propionamide] | 2 to 16 mg/L (≈ 3.85 to 30.8 µM) | > 64 mg/L | 2 to 16 mg/L (≈ 3.85 to 30.8 µM) | > 64 mg/L | – | – | – | – | – |
| C[C@@H](N)[C@H](NC(=O)c1ccc(C#CC#CCC2CC2)cc1)C(=O)NO [Example 91-27] | – | – | < 2 mg/L | 16 to 64 mg/L (≈ 47.1 to 189 µM) | < 2 mg/L | < 2 mg/L | 2 to 16 mg/L (≈ 5.89 to 47.1 µM) | 2 to 16 mg/L (≈ 5.89 to 47.1 µM) | < 2 mg/L |
| O=C(NO)C1(NS(=O)(=O)c2ccc(C#Cc3ccc(CN4CCOCC4)cc3)cc2)CCCC1 [Example 62-8] | 16 to 64 mg/L (≈ 33.1 to 132 µM) | > 64 mg/L | 16 to 64 mg/L (≈ 33.1 to 132 µM) | > 64 mg/L | – | – | – | – | – |
| CC(C)(N)[C@H](NC(=O)c1ccc(C#CC#CCC2CC2)cc1)C(=O)NO [Example 91-26] | – | – | < 2 mg/L | 16 to 64 mg/L (≈ 45.3 to 181 µM) | < 2 mg/L | < 2 mg/L | < 2 mg/L | < 2 mg/L | < 2 mg/L |
| CC(C)(N)[C@H](NC(=O)c1ccc(C#CC#Cc2ccccc2F)cc1)C(=O)NO [Example 82-29] | – | – | < 2 mg/L | 2 to 16 mg/L (≈ 5.08 to 40.7 µM) | < 2 mg/L | < 2 mg/L | < 2 mg/L | < 2 mg/L | – |
| CSC[C@H](NS(=O)(=O)c1ccc(C#Cc2ccc(CN3CCOCC3)cc2)cc1)C(=O)NO [Example 62-9] | 2 to 16 mg/L (≈ 4.08 to 32.7 µM) | > 64 mg/L | 16 to 64 mg/L (≈ 32.7 to 131 µM) | > 64 mg/L | – | – | – | – | – |
| O=C(NO)[C@@H]1CCN1S(=O)(=O)c1ccc(C#Cc2ccc(CN3CCOCC3)cc2)cc1 [Example 62-11] | < 2 mg/L | > 64 mg/L | 2 to 16 mg/L (≈ 4.39 to 35.1 µM) | > 64 mg/L | – | – | – | – | – |
| CC(C)CC#CC#Cc1ccc(C(=O)N[C@H](C(=O)NO)[C@@H](C)N)cc1 [Example 91-24] | – | – | < 2 mg/L | 2 to 16 mg/L (≈ 5.86 to 46.9 µM) | < 2 mg/L | < 2 mg/L | 2 to 16 mg/L (≈ 5.86 to 46.9 µM) | 2 to 16 mg/L (≈ 5.86 to 46.9 µM) | < 2 mg/L |
| CC(C)(O)[C@H](NC(=O)c1ccc(C#CC#Cc2cccs2)cc1)C(=O)NO [Example 88-11] | – | – | < 2 mg/L | 16 to 64 mg/L (≈ 41.8 to 167 µM) | < 2 mg/L | < 2 mg/L | < 2 mg/L | < 2 mg/L | < 2 mg/L |
